Experimental data from publication PMC8252737 (Angewandte Chemie (International Ed. in English), 2021).

What was measured:
EV D68 3C protease [1] = biological target: T1, EV D68 3C protease (Enterovirus D68, UniProt A1E4A3); assay: Tryptic digest and MS of protein-inhibitor complex; format: binding; conditions: trypsin digest of protein-inhibitor complex
T1 sequence (A1E4A3 1549-1731): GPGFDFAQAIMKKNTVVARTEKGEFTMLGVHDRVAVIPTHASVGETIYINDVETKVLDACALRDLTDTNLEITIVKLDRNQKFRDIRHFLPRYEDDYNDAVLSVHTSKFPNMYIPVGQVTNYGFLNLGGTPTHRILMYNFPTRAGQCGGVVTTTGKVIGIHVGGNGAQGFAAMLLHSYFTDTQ

EV D68 3C protease [2] = biological target: T1, EV D68 3C protease; assay: Fragment ligation screening / FRET assay of fragments and aldehyde 1; format: biochemical; conditions: fragment 19 μM + aldehyde 1 19 μM, 2 h incubation, p<0.05

SMILES | Alkylation of the 13mer peptide containing Cys147 (EV D68 3C protease [1]) | Inhibition of the protease in combination with aldehyde 1 compared to the aldehyde alone (EV D68 3C protease [2])
CCOC(=O)C=Cc1cccc(C(N)=O)c1 [Compound 13, O‐ethyl 3‐carbamoyl‐cinnamoyl ester] | complete alkylation | –
CCOC(=O)CC#N [Compound F1, O‐ethyl 2‐cyano‐acetate] | – | significantly increased inhibition
CC(=O)CC#N [Compound F4, 3‐oxo‐butane nitrile] | – | significantly increased inhibition
